Experiments:
[1] = test system: Paracoccus sp. strain K-185; assay: Glutamate supplementation, test tube culture (soybean meal medium), carotenoid by HPLC; format: cell-based
Experimental: (§1) In the examples, carotenoids were quantified by high performance liquid chromatography (HPLC) as follows.
(§2) Two columns of Wakosil-II 5 SIL-100 (φ4.6×250 mm) (Wako Pure Chemical Industries, Ltd., Japan) were connected to each other for use as a column. Elution was performed by flowing an n-hexane-tetrahydrofuran-methanol mixed solution (40:20:1), which was a mobile phase, at a flow rate of 1.0 mL/minute at a constant temperature around room temperature. The measurement was performed as follows. Samples were each dissolved in tetrahydrofuran and then diluted 100-fold with the mobile phase. Each dilution was injected in a volume of 20 μL. The column eluate was detected at a wavelength of 470 nm. As a reference for quantification, astaxanthin (SIGMA, Cat. No. A9335) was used. The astaxanthin concentration of the reference solution was determined using the following equation after measuring the absorbance (A) of the reference solution at 477 nm and the area percentage % (B) of the astaxanthin peak at the time of HPLC analysis under the above conditions.
Next, a medium of the following composition (glucose 30 g/L, soybean meal 20 g/L, ammonium sulfate 1.5 g/L, potassium dihydrogenphosphate 1.5 g/L, disodium hydrogenphosphate 12-hydrate 3.8 g/L, calcium chloride dihydrate 5.0 g/L, magnesium sulfate 7-hydrate 0.7 g/L, iron sulfate 7-hydrate 0.6 g/L, ester-based defoaming agent 0.2 g/L) was dispensed in 8 ml volumes into cotton-plugged test tubes having an inner diameter of 18 mm (2 tubes in total). One of the test tubes was supplemented with monosodium L-glutamate monohydrate to 30 mmol/L, while the other was supplemented with nothing as a control.
The resulting culture solution was then inoculated in 0.1. ml volumes into the two test tube mediums and cultured with shaking at 28° C. for 3 days at 300 spm. Each culture solution was measured for its carotenoid concentration by HPLC.

[2] = test system: mutant Paracoccus sp. strain Y-1071; assay: Glutamate vs yeast extract supplementation, test tube culture (defined medium), carotenoid by HPLC; format: cell-based
Experimental: as §1
as §2, with “conditions. Astaxanthin concentration (mg/L)=A/2150×B×100” for “conditions.”
A medium of the following composition (glucose 20 g/L, dry yeast 5 g/L, potassium dihydrogenphosphate 1.5 g/L, disodium hydrogenphosphate 12-hydrate 3.8 g/L, calcium chloride dihydrate 0.1 g/L, magnesium sulfate 7-hydrate 0.7 g/L, iron sulfate 7-hydrate 3 g/L, pH 7.2) was dispensed in 8 ml volumes into cotton-plugged test tubes having an inner diameter of 18 mm and sterilized in an autoclave at 121° C. for 15 minutes to prepare a test tube medium for seed culture.
Next, a medium of the following composition (glucose 40 g/L, ammonium sulfate 1.5 g/L, potassium dihydrogenphosphate 0.54 g/L, dipotassium hydrogenphosphate 2,78 g/L, calcium chloride dihydrate 1 g/L, sodium chloride 3 g/L, magnesium sulfate 7-hydrate 0.7 g/L, iron sulfate 7-hydrate 5 g/L, zinc sulfate 7-hydrate 2 mg/L, cobalt chloride 6-hydrate 2 mg/L, copper sulfate 5-hydrate 1 mg/L, manganese sulfate 5-hydrate 4 mg/L, sodium molybdate dihydrate 2 mg/L, nickel sulfate 6-hydrate 1 mg/L, sodium selenate 0.5 mg/L, boric acid 5 mg/L, potassium iodide 1 mg/L, cyanocobalamin 1 mg/L, riboflavin 10 mg/L, calcium pantothenate 15 mg/L, pyridoxine hydrochloride salt 20 mg/L, thiamine hydrochloride salt […], ascorbic acid 30 mg/L, folic acid 1 mg/L, niacin 15 mg/L, p-aminobenzoic acid 10 mg/L, biotin 0.1 mg/L, myo-inositol 50 mg/L, choline 10 mg/L, polyether-based defoaming agent 0.2 g/L) was dispensed in 8 ml volumes into cotton-plugged test tubes having an inner diameter of 18 mm (4 tubes in total).
For use in this medium, glucose, inorganic salts, trace metals and vitamins were prepared separately. Glucose, inorganic salts and trace metals were sterilized by heating at 121° C. for 15 minutes, while vitamins were sterilized by filtration. Then, these 4 solutions were mixed together.
Further, one of the test tubes was supplemented with a heat-sterilized aqueous solution of monosodium L-glutamate monohydrate to 6 g/L (32 mmol/L), another tube was supplemented with a heat-sterilized aqueous yeast extract to 6 g/L, another tube was supplemented with the same yeast extract to 12 g/L, and the other tube was supplemented with nothing. Finally, the mediums in the tubes were aseptically supplemented with 12% aqueous ammonia to give pH 7.2.
The mutant Paracoccus sp. strain Y-1071 selected in Example 3 was inoculated into the test tube medium for seed culture and then cultured with shaking at 30° C. for 2 days at 300 spm. The resulting culture solution was then inoculated in 0.1 ml volumes into the 4 test tube media and cultured with shaking at 3(1° C. for 3 days at 300 spm.
Each culture solution was measured for its carotenoid concentration by HPLC.

[3] = Glutamic acid concentration 30 mmol/L, 28° C. for 3 days

N[C@@H](CCC(=O)O)C(=O)O [Glutamic acid, glutamic acid]
produced carotenoid concentration compared to the sample without glutamic acid ([1]; 30 mmol/L): higher produced carotenoid concentration
3-Hydroxyechinenone [1, 3]: 0.1 mg/L
Adonixanthin [1, 3]: 1.6 mg/L
Astaxanthin [1, 3]: 9.2 mg/L
Asteroidenone [1, 3]: 0.1 mg/L
Canthaxanthin [1, 3]: 1.3 mg/L
Echinenone [1, 3]: 0.6 mg/L
Phoenicoxanthin [1, 3]: 2.0 mg/L
Total carotenoid [1, 3]: 17.1 mg/L
Zeaxanthin [1, 3]: 0.03 mg/L
β-Carotene [1, 3]: 2.1 mg/L
β-Cryptoxanthin [1, 3]: 0.02 mg/L
produced carotenoid concentration compared to the sample without glutamic acid ([2]; glutamic acid 6 g/L (32 mmol/L), yeast extract 6 g/L and 12 g/L): higher produced carotenoid concentration
Produced carotenoid concentration, 3-Hydroxyechinenone ([2]; supplement 6 g/L, 3 days): 0.2 mg/L
Produced carotenoid concentration, Adonixanthin ([2]; supplement 6 g/L, 3 days): 3.3 mg/L
Produced carotenoid concentration, Astaxanthin ([2]; supplement 6 g/L, 3 days): 13.7 mg/L
Produced carotenoid concentration, Asteroidenone ([2]; supplement 6 g/L, 3 days): 0.2 mg/L
Produced carotenoid concentration, Canthaxanthin ([2]; supplement 6 g/L, 3 days): 1.8 mg/L
Produced carotenoid concentration, Echinenone ([2]; supplement 6 g/L, 3 days): 0.9 mg/L
Produced carotenoid concentration, Phoenicoxanthin ([2]; supplement 6 g/L, 3 days): 4.1 mg/L
Produced carotenoid concentration, Total Carotenoid ([2]; supplement 6 g/L, 3 days): 26.3 mg/L
Produced carotenoid concentration, Zeaxanthin ([2]; supplement 6 g/L, 3 days): 0.06 mg/L
Produced carotenoid concentration, β-Carotene ([2]; supplement 6 g/L, 3 days): 2.0 mg/L
Produced carotenoid concentration, β-Cryptoxanthin ([2]; supplement 6 g/L, 3 days): 0.02 mg/L
